Legend:
PSEN2/g-secretase = molecular target: T1, PSEN2/g-secretase (Homo sapiens, UniProt P49810); assay: Localisation of GFP-PSEN2/g-secretase in LAMP1-positive organelles (confocal); assay type: cell-based, mouse; settings: 1 μM, 16 hrs; dKO MEFs rescued with EGFP-PSEN2
T1 construct: expressed in transfected cells
Protocol: We now questioned whether g-secretase inhibitors would affect subcellular distribution of g-secretase complexes as well. We made use of mouse embryonic fibroblasts (MEFs) in which both PSEN1 an PSEN2 are knocked-out (dKO), rescued with either EGFP-PSEN1 or EGFP-PSEN2 (FIG. 1A). […] The dKO MEFs were then incubated overnight with N—[N-(3,5-difluorophenacetyl)-L-alanyl]-S-phenylglycine t-butyl ester (DAPT). DAPT is a non-transition state analogue (TSA) g-secretase inhibitor that is widely used (Dovey et al 2001 J Neurochem 76).
All culture media and sera are from ThermoFisher Scientific. Mouse embryonic fibroblasts (MEFs), PSEN1 knock-out (1 ko), PSEN1 and PSEN2 double knock-out (dKO, Herreman et al 2000 Nat Cell Biol 2), rescued 1 ko and dKO cell lines cells were routinely grown in Dulbecco's modified Eagle's medium (DMEM/F12) supplemented with 10% fetal calf serum (FCS). All cell lines were maintained in a humidified chamber with 5% CO2 at 37° C. […]
(§1) Cells were plated on glass coverslips, transfected 24 h later and processed for indirect immunolabeling the next day (Sannerud et al 2011 Proc Natl Acad Sci USA 108). […] ImageJ software with the plugin JACoP (Bolte and Cordelieres 2006 J Microsc 224) was used for signal overlap quantification (Mander's coefficient). Images were acquired with identical settings and regions of interest (ROI) covering whole cells were used for quantification.

PSEN1/g-secretase = PSEN1/g-secretase (Homo sapiens, UniProt P49768); assay: GFP-PSEN1 relocation in primary hippocampal neurons; assay type: cell-based; set-up: expressed in transfected cells; host or cells: rat (E18) primary hippocampal neurons, lentiviral pFUGW-GFP-PSEN1; settings: rat primary hippocampal neurons, 1 μM
Protocol: FIG. 1. DAPT relocates PSEN1/g-secretase to late endosomes. (A) PSEN1 and PSEN2 double knock-out (dKO) MEFs stably expressing GFP-PSEN1 or GFP-PSEN2 were treated for 16 h with 1 μM of DAPT or DMSO and immunostained for GFP (green) and LAMP1 antibodies (red). (B) Quantification of (A) using Mander's coefficient. (C) Ratio of GFP intensity in LAMP1-positive structures over total GFP intensity in the cell, normalized to DMSO-treated cells (control=Ctrl). (D) Quantification of size area of LAMP1-positive organelles per cell showing no significant differences between DMSO and DAPT-treated cells. (E) PSEN1, PSEN2 and NCT triple KO MEFs stably rescued with NCT-SNAP and GFP-PSEN1 were treated for 16 h with 1 μM of DAPT or DMSO (Ctrl). Prior to fixation, SNAP-Cell 647-SiR was added to label NCT-SNAP (red for Merge2). After 1 h, cells were fixed and immunostained for GFP (green) and LAMP1 (red for Merge2). Two merged images are shown. […] All graphs show the median with 95% confidence interval (n=3, ˜20 cells per experiments; p-values are calculated using Mann-Whitney test; ns means non-significant). […]
The plasmids pSG5-C99-3×FLAG and pMSCV-GFP-PSEN1-wt and FADs, pFUGW-GFP-PSEN1 were previously described (Sannerud et al 2016 Cell 166). […] Primary hippocampal neurons were infected at 3 to 4 days in vitro (DIV) and analyzed at 7 DIV.

g-secretase complex = molecular target: T2, g-secretase complex (Homo sapiens, UniProt P49768); assay: Cadherin CTF and APP CTF accumulation (Western blot); assay type: cell-based, mouse; settings: FIG. 7 Western blot
T2 construct: expressed in transfected cells
Protocol: Second, of all these compounds, the inhibitory action on g-secretase activity was determined by quantifying the production of the C-terminal fragments (CTF) of Cadherin and APP. Both Cadherin-CTF and APP-CTF accumulate when the enzymatic activity of the g-secretase complex is inhibited. As can be appreciated from the Western blot in FIG. 7, all tested g-secretase inhibitors (C1, C2, C4 and C8) induced the level of Cadherin CTF and APP CTF in contrast to the negative control and the g-secretase stabilizers.
Protein concentrations were determined by the Bio-Rad DC protein assay (Bio-Rad). Samples were separated by SDS-PAGE (4-12% Bis-Tris NuPAGE gels in MES running buffer (ThermoFisher Scientific) and transferred onto nitrocellulose membranes (ThermoFisher Scientific). After blocking in 5% non-fat milk, membranes were incubated with primary antibody (4° C., overnight) followed by washing and incubation with horseradish peroxidase (HRP)-conjugated secondary antibodies (1 h, room temperature). After final washing, immunodetection was done using enhanced chemiluminescence (Western Lightning-Plus ECL, PerkinElmer), and immunoreactive protein bands were digitally captured and quantified on a Fuji MiniLAS 3000 imager (Fuji, Dusseldorf, Germany) using Aida Image Analyzer software (Raytest, Germany). Data are represented as mean±SEM of at least three independent experiments.

[1] = test system: LAMP1-positive organelles; assay: Size area of LAMP1-positive organelles per cell; assay type: cell-based, mouse; settings: 1 μM, 16 hrs
Protocol: FIG. 1. DAPT relocates PSEN1/g-secretase to late endosomes. (A) PSEN1 and PSEN2 double knock-out (dKO) MEFs stably expressing GFP-PSEN1 or GFP-PSEN2 were treated for 16 h with 1 μM of DAPT or DMSO and immunostained for GFP (green) and LAMP1 antibodies (red). (B) Quantification of (A) using Mander's coefficient. (C) Ratio of GFP intensity in LAMP1-positive structures over total GFP intensity in the cell, normalized to DMSO-treated cells (control=Ctrl). (D) Quantification of size area of LAMP1-positive organelles per cell showing no significant differences between DMSO and DAPT-treated cells. (E) PSEN1, PSEN2 and NCT triple KO MEFs stably rescued with NCT-SNAP and GFP-PSEN1 were treated for 16 h with 1 μM of DAPT or DMSO (Ctrl). […] All graphs show the median with 95% confidence interval (n=3, ˜20 cells per experiments; p-values are calculated using Mann-Whitney test; ns means non-significant).
as §1

EGFP-PSEN2 in LAMP1-positive organelles, Mander's coefficient (PSEN2/g-secretase): no additional effect
ratio of EGFP-PSEN2 fluorescence within LAMP1-positive compartments over total (PSEN2/g-secretase): remained unaltered
relocation of GFP-PSEN1 (PSEN1/g-secretase): Identical observations
level of APP CTF (g-secretase complex): accumulate
level of Cadherin CTF (g-secretase complex): accumulate
Compound: C[C@H](NC(=O)Cc1cc(F)cc(F)c1)C(=O)N[C@H](C(=O)OC(C)(C)C)c1ccccc1 [DAPT, N—[N-(3,5-difluorophenacetyl)-L-alanyl]-S-phenylglycine t-butyl ester]
total size area of LAMP1-positive organelles [1]: no measurable effect

Reference: patent US20220397566A1, “GAMMA-SECRETASE STABILIZING COMPOUND SCREENING ASSAY” (VIB VZW, priority 2019, published 2022)
